Laboratory results reported in US11214565B2, “Compound, compositions, and methods” (Denali Therapeutics Inc., priority 2015, dated 2022).

What follows are compounds tested against LRRK2 G2019S enzyme (Homo sapiens (Human), UniProt Q5S007, G2019S) (assay: LRRK2 G2019S TR-FRET biochemical kinase assay (LRRKtide substrate)). Settings: Table A-2; 5 nM LRRK2, 134 μM ATP, 60 minute reaction, 23° C.
Description: LRRK2 G2019S enzyme, Substrate (LRRKtide), ATP, TR-FRET dilution buffer, pLRRKtide antibody, 384-well assay plate, and DMSO.
50 mM Tris pH 7.5, 10 mM MgCl2, 1 mM EGTA, 0.01% Brij-35, 2 mM DTT, 5 nM LRRK2, 134 μM ATP, 60 minute reaction time, 23° C. reaction temperature, and 10 μL total reaction volume.
1×TR-FRET dilution buffer, 10 mM EDTA, 2 nM antibody, 23° C. reaction temperature, and 10 μL total reaction volume.
Compound solutions were prepared by initially diluting to 1 mM with DMSO. 35 μL of reference compound solution, 35 μL of test compound solution, and 35 μL HPE were successively added to the source plate (384-well assay plate, Labcyte). The plates were centrifuged at 2500 rpm for 1 minute and sealed in foil. POD was used to perform a 3.162 fold serial dilution and 100 nL of reference compound solution, test compound solution, HPE and ZPE were transferred to assay plates. The assay plate was centrifuged at 2500 rpm for 1 minute, and sealed with foil.
To perform the enzyme reaction, 5 μL of LRRKtide substrate and kinase mixture in assay buffer was added to all wells of the assay plate. The plate was centrifuged to concentrate the mixture at the bottom of the wells. The assay plate was incubated at 23° C. for 20 minutes. Following incubation, 5 μL of 2×ATP in assay buffer was added to each well, and plates were centrifuged to concentrate the mixture at the bottom of the wells. The plate was incubated at 23° C. for 60 minutes.
To perform the detection of the reaction, EDTA completely mixed in TR-FRET dilution buffer was added to antibody reagent. 10 μL of detection reagent was added to all wells of each well of the assay-plate and the plate was centrifuged to concentrate the mixture at the bottom of the wells. The plate was then incubated at 23° C. for 60 minutes. Plates were read on Perkin Elmer Envision 2104 instrument in TR-FRET mode using a 340 nm excitation filter, 520 nm fluorescence emission filter, and 490 or 495 nm terbium emission filter.
B-2, C2, and D-4 respectively.

Chain of LRRK2 G2019S enzyme (Q5S007 whole entry G2019S): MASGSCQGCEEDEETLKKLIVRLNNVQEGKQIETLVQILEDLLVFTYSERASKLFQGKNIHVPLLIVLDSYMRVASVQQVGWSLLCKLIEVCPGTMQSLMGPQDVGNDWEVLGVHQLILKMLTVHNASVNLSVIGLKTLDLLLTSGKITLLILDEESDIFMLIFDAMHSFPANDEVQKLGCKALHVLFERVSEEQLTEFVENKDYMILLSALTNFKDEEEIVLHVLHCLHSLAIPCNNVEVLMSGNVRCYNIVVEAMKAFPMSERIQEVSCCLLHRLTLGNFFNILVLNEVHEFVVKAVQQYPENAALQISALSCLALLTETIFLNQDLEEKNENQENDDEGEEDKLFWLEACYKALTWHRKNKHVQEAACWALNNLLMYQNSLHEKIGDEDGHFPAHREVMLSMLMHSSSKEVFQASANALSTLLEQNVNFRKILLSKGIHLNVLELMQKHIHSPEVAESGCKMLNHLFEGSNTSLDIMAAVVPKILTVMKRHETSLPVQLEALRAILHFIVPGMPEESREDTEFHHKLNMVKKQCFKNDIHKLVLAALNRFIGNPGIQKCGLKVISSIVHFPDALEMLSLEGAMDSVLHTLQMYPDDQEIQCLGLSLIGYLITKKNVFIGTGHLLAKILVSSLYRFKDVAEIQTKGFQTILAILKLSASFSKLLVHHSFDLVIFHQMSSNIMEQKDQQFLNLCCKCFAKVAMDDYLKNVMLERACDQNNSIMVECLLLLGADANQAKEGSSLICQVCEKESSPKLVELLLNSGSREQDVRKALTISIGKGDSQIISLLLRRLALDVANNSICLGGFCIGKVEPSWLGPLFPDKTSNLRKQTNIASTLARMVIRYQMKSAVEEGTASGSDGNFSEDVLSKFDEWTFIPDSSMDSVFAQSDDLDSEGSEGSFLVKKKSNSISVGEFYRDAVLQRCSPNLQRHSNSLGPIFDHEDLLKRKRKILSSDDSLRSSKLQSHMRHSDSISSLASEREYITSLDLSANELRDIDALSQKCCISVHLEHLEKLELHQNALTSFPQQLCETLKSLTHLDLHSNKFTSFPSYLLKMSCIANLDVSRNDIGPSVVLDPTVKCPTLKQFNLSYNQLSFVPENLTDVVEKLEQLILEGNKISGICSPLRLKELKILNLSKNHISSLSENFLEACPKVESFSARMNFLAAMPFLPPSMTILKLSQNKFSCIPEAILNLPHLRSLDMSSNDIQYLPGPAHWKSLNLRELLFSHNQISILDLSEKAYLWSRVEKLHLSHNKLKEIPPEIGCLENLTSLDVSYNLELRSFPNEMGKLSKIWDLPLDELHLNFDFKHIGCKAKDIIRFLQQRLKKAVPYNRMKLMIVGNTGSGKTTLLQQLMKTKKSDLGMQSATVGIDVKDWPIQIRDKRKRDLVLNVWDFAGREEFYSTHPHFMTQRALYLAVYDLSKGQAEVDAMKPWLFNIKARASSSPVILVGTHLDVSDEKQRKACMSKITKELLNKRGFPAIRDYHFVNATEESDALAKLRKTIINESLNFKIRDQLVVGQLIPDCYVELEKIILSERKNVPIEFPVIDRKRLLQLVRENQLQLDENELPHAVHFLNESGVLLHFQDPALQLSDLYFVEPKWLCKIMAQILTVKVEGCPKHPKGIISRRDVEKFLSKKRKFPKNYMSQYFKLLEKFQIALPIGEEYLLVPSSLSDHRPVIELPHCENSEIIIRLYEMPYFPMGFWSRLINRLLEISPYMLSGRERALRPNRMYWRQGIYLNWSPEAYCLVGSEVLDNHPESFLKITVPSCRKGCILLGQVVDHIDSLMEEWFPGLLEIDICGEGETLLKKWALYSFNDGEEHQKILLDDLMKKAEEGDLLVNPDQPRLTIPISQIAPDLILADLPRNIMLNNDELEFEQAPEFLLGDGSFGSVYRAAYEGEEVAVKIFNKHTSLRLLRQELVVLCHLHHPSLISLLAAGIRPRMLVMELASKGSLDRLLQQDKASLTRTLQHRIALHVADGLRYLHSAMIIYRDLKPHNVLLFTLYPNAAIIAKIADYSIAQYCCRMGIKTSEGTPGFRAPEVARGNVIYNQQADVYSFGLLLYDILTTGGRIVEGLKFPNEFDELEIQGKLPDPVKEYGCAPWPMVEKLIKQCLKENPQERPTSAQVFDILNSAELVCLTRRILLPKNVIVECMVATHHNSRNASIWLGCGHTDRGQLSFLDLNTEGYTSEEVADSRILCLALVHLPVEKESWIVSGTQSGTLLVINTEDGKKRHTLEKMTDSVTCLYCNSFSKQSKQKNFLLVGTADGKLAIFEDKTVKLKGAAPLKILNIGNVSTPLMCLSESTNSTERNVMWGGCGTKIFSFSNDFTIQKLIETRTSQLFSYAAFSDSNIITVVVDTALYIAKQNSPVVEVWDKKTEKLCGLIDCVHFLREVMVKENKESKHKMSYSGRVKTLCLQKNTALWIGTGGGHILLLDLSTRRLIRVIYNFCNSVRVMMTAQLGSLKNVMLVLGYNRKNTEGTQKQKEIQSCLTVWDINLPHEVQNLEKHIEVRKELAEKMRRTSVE

SMILES | IC50
Cn1cnc(C(C)(C)n2cc(Nc3ncc(C(F)(F)F)c(C4CC4)n3)c(Cl)n2)n1 [Compound A-36, N-(3-chloro-1-(2-(1-methyl-1H-1,2,4-triazol-3-yl)propan-2-yl)-1H-pyrazol-4-yl)-4-cyclopropyl-5-(trifluoromethyl)pyrimidin-2-amine] | < 30 nM
Cn1ncnc1C(C)(C)n1cc(Nc2ncc(C(F)(F)F)c(C3CC3)n2)c(Cl)n1 [Compound A-37, N-(3-chloro-1-(2-(1-methyl-1H-1,2,4-triazol-5-yl)propan-2-yl)-1H-pyrazol-4-yl)-4-cyclopropyl-5-(trifluoromethyl)pyrimidin-2-amine] | > 60 nM
Cc1nn(C(C)(C)C#N)cc1Nc1ncc(C(F)(F)F)c(C2(F)CC2)n1 [Compound A-38, 2-(4-((4-(1-fluorocyclopropyl)-5-(trifluoromethyl)pyrimidin-2-yl)amino)-3-methyl-1H-pyrazol-1-yl)-2-methylpropanenitrile] | > 60 nM
Cc1nn(C(C)(C)c2cn(C)nn2)cc1Nc1ncc(C(F)(F)F)c(C2CC2)n1 [Compound A-39, 4-cyclopropyl-N-(3-methyl-1-(2-(1-methyl-1H-1,2,3-triazol-4-yl)propan-2-yl)-1H-pyrazol-4-yl)-5-(trifluoromethyl)pyrimidin-2-amine] | < 30 nM
Cc1nn(C(C)(C)c2cnn(C)n2)cc1Nc1ncc(C(F)(F)F)c(C2CC2)n1 [Compound A-40, 4-cyclopropyl-N-(3-methyl-1-(2-(2-methyl-2H-1,2,3-triazol-4-yl)propan-2-yl)-1H-pyrazol-4-yl)-5-(trifluoromethyl)pyrimidin-2-amine] | < 30 nM
Cc1nn(C2(c3ncn(C)n3)CCC2)cc1Nc1ncc(C(F)(F)F)c(C2CC2)n1 [Compound A-41, 4-cyclopropyl-N-[3-methyl-1-[1-(1-methyl-1,2,4-triazol-3-yl)cyclobutyl]pyrazol-4-yl]-5-(trifluoromethyl)pyrimidin-2-amine] | < 30 nM
Cc1nn(C2(c3ncnn3C)CCC2)cc1Nc1ncc(C(F)(F)F)c(C2CC2)n1 [Compound A-42, 4-cyclopropyl-N-[3-methyl-1-[1-(2-methyl-1,2,4-triazol-3-yl)cyclobutyl]pyrazol-4-yl]-5-(trifluoromethyl)pyrimidin-2-amine] | > 60 nM
Cc1c(Nc2ncc(Cl)c(C3CC3)n2)cnn1C(CF)CF [Compound A-43, 5-chloro-4-cyclopropyl-N-[1-[2-fluoro-1-(fluoromethyl)ethyl]-5-methyl-pyrazol-4-yl]pyrimidin-2-amine] | < 30 nM
Cc1nn(C(CF)CF)cc1Nc1ncc(Cl)c(C2CC2)n1 [Compound A-44, 5-chloro-4-cyclopropyl-N-[1-[2-fluoro-1-(fluoromethyl)ethyl]-3-methyl-pyrazol-4-yl]pyrimidin-2-amine] | < 30 nM
FCC(CF)n1ncc(Nc2ncc(C(F)(F)F)c(C3CC3)n2)c1Cl [Compound A-45, N-[5-chloro-1-[2-fluoro-1-(fluoromethyl)ethyl]pyrazol-4-yl]-4-cyclopropyl-5-(trifluoromethyl)pyrimidin-2-amine] | < 30 nM
FCC(CF)n1cc(Nc2ncc(C(F)(F)F)c(C3CC3)n2)c(Cl)n1 [Compound A-46, N-[3-chloro-1-[2-fluoro-1-(fluoromethyl)ethyl]pyrazol-4-yl]-4-cyclopropyl-5-(trifluoromethyl)pyrimidin-2-amine] | < 30 nM
Cc1nn(C2(C#N)CC2)cc1Nc1ncc(C(F)(F)F)c(C2CC2)n1 [Compound A-47, 1-[4-[[4-cyclopropyl-5-(trifluoromethyl)pyrimidin-2-yl]amino]-3-methyl-pyrazol-1-yl]cyclopropanecarbonitrile] | < 30 nM
F[C@H]1CN(C2COC2)CC[C@@H]1n1ncc(Nc2ncc(C(F)(F)F)c(C3CC3)n2)c1Cl [Compound A-48, N-(5-chloro-1-((3S,4S)-3-fluoro-1-(oxetan-3-yl)piperidin-4-yl)-1H-pyrazol-4-yl)-4-cyclopropyl-5-(trifluoromethyl)pyrimidin-2-amine] | < 30 nM
CCn1cnc(C(C)(C)n2cc(Nc3ncc(C(F)(F)F)c(C4CC4)n3)c(C)n2)n1 [Compound A-51, 4-cyclopropyl-N-(1-(2-(1-ethyl-1H-1,2,4-triazol-3-yl)propan-2-yl)-3-methyl-1H-pyrazol-4-yl)-5-(trifluoromethyl)pyrimidin-2-amine] | < 30 nM

Further lines, results first:

IC50 | SMILES
> 60 nM | Cc1nn(C2(c3ncn(C)n3)CC2)cc1Nc1ncc(C(F)(F)F)c(C2CC2)n1 [Compound A-52, 4-cyclopropyl-N-[3-methyl-1-[1-(1-methyl-1,2,4-triazol-3-yl)cyclopropyl]pyrazol-4-yl]-5-(trifluoromethyl)pyrimidin-2-amine]
< 30 nM | Cc1nn(C(C)(C)c2ncn(C)n2)cc1Nc1ncc(Br)c(C2CC2)n1 [Compound A-53, 5-bromo-4-cyclopropyl-N-(3-methyl-1-(2-(1-methyl-1H-1,2,4-triazol-3-yl)propan-2-yl)-1H-pyrazol-4-yl)pyrimidin-2-amine]
< 30 nM | Cc1c(Nc2ncc(C(F)(F)F)c(C3CC3)n2)cnn1Cc1ccn(C)n1 [Compound A-54, 4-cyclopropyl-N-[5-methyl-1-[(1-methylpyrazol-3-yl)methyl]pyrazol-4-yl]-5-(trifluoromethyl)pyrimidin-2-amine]
< 30 nM | Cc1nn(Cc2ccn(C)n2)cc1Nc1ncc(C(F)(F)F)c(C2CC2)n1 [Compound A-55, 4-cyclopropyl-N-(3-methyl-1-((1-methyl-1H-pyrazol-3-yl)methyl)-1H-pyrazol-4-yl)-5-(trifluoromethyl)pyrimidin-2-amine]
< 30 nM | Cc1nn(C(C)(C)c2cn(C)cn2)cc1Nc1ncc(C(F)(F)F)c(C2CC2)n1 [Compound A-56, 4-cyclopropyl-N-(3-methyl-1-(2-(1-methyl-1H-imidazol-4-yl)propan-2-yl)-1H-pyrazol-4-yl)-5-(trifluoromethyl)pyrimidin-2-amine]
> 60 nM | CC(C)(O)Cn1ncc(Nc2ncc(C(F)(F)F)c(C3CC3)n2)c1Cl [Compound A-57, 1-[5-chloro-4-[[4-cyclopropyl-5-(trifluoromethyl)pyrimidin-2-yl]amino]pyrazol-1-yl]-2-methyl-propan-2-ol]
< 30 nM | Cc1nn(C(C)(C)c2nc[nH]n2)cc1Nc1ncc(C(F)(F)F)c(C2CC2)n1 [Compound A-58, N-(1-(2-(1H-1,2,4-triazol-3-yl)propan-2-yl)-3-methyl-1H-pyrazol-4-yl)-4-cyclopropyl-5-(trifluoromethyl)pyrimidin-2-amine]
30 to 60 nM | FC(F)(F)c1cnc(Nc2cnn(CC3(CN4CCOCC4)CC3)c2Cl)nc1C1CC1 [Compound A-63, N-[5-chloro-1-[[1-(morpholinomethyl)cyclopropyl]methyl]pyrazol-4-yl]-4-cyclopropyl-5-(trifluoromethyl)pyrimidin-2-amine]
> 60 nM | Cn1cnc(C(C)(C)n2cc(Nc3ncc(C(F)(F)F)c(C4CC4)n3)c(CO)n2)n1 [Compound A-66]
< 30 nM | Cc1nn(C(C)(C)c2ccn[nH]2)cc1Nc1ncc(C(F)(F)F)c(C2CC2)n1 [Compound A-67, 4-cyclopropyl-N-[3-methyl-1-[1-methyl-1-(1H-pyrazol-5-yl)ethyl]pyrazol-4-yl]-5-(trifluoromethyl)pyrimidin-2-amine]
< 30 nM | Cc1c(Nc2ncc(C(F)(F)F)c(C3CC3)n2)cnn1[C@H]1CC2C(C1)[C@H]2c1ncnn1C (stereo partly drawn) [Compound A-68, 4-cyclopropyl-N-(5-methyl-1-((1R,3s,5S,6r)-6-(1-methyl-1H-1,2,4-triazol-5-yl)bicyclo[3.1.0]hexan-3-yl)-1H-pyrazol-4-yl)-5-(trifluoromethyl)pyrimidin-2-amine]
< 30 nM | Cc1nn([C@H]2CC3C(C2)[C@H]3c2ncn(C)n2)cc1Nc1ncc(C(F)(F)F)c(C2CC2)n1 (stereo partly drawn) [Compound A-69, 4-cyclopropyl-N-(3-methyl-1-((1R,3r,5S,6r)-6-(1-methyl-1H-1,2,4-triazol-3-yl)bicyclo[3.1.0]hexan-3-yl)-1H-pyrazol-4-yl)-5-(trifluoromethyl)pyrimidin-2-amine]
< 30 nM | Cc1nn([C@H]2CC3C(C2)[C@H]3c2ncnn2C)cc1Nc1ncc(C(F)(F)F)c(C2CC2)n1 (stereo partly drawn) [Compound A-70, 4-cyclopropyl-N-(3-methyl-1-((1R,3s,5S,6r)-6-(1-methyl-1H-1,2,4-triazol-5-yl)bicyclo[3.1.0]hexan-3-yl)-1H-pyrazol-4-yl)-5-(trifluoromethyl)pyrimidin-2-amine]
< 30 nM | Cc1nn(C(C)(C)c2cn[nH]n2)cc1Nc1ncc(C(F)(F)F)c(C2CC2)n1 [Compound A-71, N-(1-(2-(2H-1,2,3-triazol-4-yl)propan-2-yl)-3-methyl-1H-pyrazol-4-yl)-4-cyclopropyl-5-(trifluoromethyl)pyrimidin-2-amine]
